{"source": "paper PMC5525545", "about": "(Nature, 2017)", "origin": "cited, not measured here", "key": {"AT2R": {"test_system": "AT2R", "conditions": "activation of AT2R"}, "[1]": {"conditions": "several neuropathic pain models in rodents"}, "[2]": {"test_system": "AngII-induced neuronal excitability"}, "[3]": {"conditions": "patients with post-herpetic neuralgia"}}}
{"smiles": "CCCCOC(=O)NS(=O)(=O)c1sc(CC(C)C)cc1-c1ccc(Cn2ccnc2)cc1", "note": "[Compound 21]", "values": [{"measurement": "beneficial in vivo effects", "setting": "AT2R", "result": "inducing pressure natriuresis, lowering blood pressure, conferring acute vaso-relaxation, and exhibiting organ protective effects"}]}
{"smiles": "Cc1cc(Cn2cnc3c2C[C@@H](C(=O)O)N(C(=O)C(c2ccccc2)c2ccccc2)C3)ccc1N(C)C", "note": "[PD123319]", "values": [{"measurement": "oral bioavailability", "setting": "[1]", "result": "exhibits oral bioavailability"}, {"measurement": "effect on AngII-induced neuronal excitability", "setting": "[2]", "result": "blocks AngII-induced neuronal excitability"}]}
{"smiles": "COc1ccc2c(c1OCc1ccccc1)C[C@@H](C(=O)O)N(C(=O)C(c1ccccc1)c1ccccc1)C2", "note": "[EMA401]", "values": [{"measurement": "efficacy in phase II clinical trials", "setting": "[3]", "result": "demonstrated efficacy"}]}
